Data on 1 compound can be found in patent US10065965B2, “Imidazo[1,2-B][1,2,4]triazine derivatives as antiparasitic agents” (GlaxoSmithKline Intellectual Property Development Limited, priority 2015, dated 2018).

Molecules are shown by their SMILES.

What all share (type): cell-based
Data set [1] can be described thus: Assay 2 Trypanosoma cruzi intracellular assay, cytotoxicity against VERO cells. Conditions: African green monkey, Vero cells infected with T. cruzi trypomastigotes, total number of Vero cells, minimum threshold 4.3, read-out: cytotoxicity against VERO cells, pEC50 (converted). The protocol:
Compounds were dispensed into black 384-well assay plates (Corning) by acoustic dispensing (LabCyte ECHO). For potency determinations, ten-point one in three dilution curves were generated, with a top concentration of 50 μM. Vero cells were infected overnight with T. cruzi trypomastigotes in T225 tissue culture flasks at a multiplicity of infection of 5. Next, any remaining free trypomastigotes were washed away with serum free MEM media and the infected Vero cells were harvested by trypsinisation. The infected Vero cells were then plated into 384-well plates containing the compounds to be tested, at 4000 cells per well in MEM media with 1% FCS. After 72 h incubation at 37° C. in presence of 5% CO2, the plates were fixed with 4% formaldehyde for 20 minutes at room temperature and stained with 5 μg/ml Hoechst 33342. The plates were imaged on a Perkin Elmer Operetta high-content imaging system using a 20× objective. Images were analysed using the Columbus system (Perkin Elmer). The image analysis algorithm first identified the Vero nuclei followed by demarcation of the cytoplasm and identification of intracellular amastigotes. This algorithm reported mean number of parasites per Vero cell and total number of Vero cells.

The next data set relates to Leishmania donovani. Briefly: Assay 1 intramacrophage Leishmania donovani assay (potency readout). Conditions: amastigotes in PMA-treated THP-1 macrophages, 96 h, average number of amastigotes per cell, minimum threshold 4.3, read-out: pEC50 value against Leishmania donovani (converted). In a few lines: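 THP-1 cells were differentiated with 20 nM PMA for 75 h, infected with amastigotes at MOI 5 for 16 h, then exposed to compound for 96 h in a ten-point 1:3 series from a 50 μM top concentration. Cells were fixed, DAPI/CellMask-stained and imaged by high-content microscopy. pEC50 was derived from amastigotes per cell and from THP-1 count.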

Data set [2] can be described thus: Assay 6 Trypanosoma cruzi intracellular assay, cytotoxicity against H9c2 cells. Conditions: rat, H9C2 cardiomyocytes infected with T. cruzi trypomastigotes, total number of H9C2 cells, minimum threshold 4.3, read-out: cytotoxicity against H9c2 cells, pEC50 (converted). The protocol: Compounds were dispensed into black 384-well assay plates (Greiner) by acoustic dispensing (LabCyte ECHO). For potency determinations, eleven-point, one in three dilution curves were generated, with a top concentration of 50 μM. H9C2 rat cardiomyocytes cells were dispensed in T225 tissue culture flasks and after 4 hours they were infected during 18 hours with T. cruzi trypomastigotes in the same T225 tissue culture flasks at a multiplicity of infection of 1. Next, any remaining free trypomastigotes were washed away with PBS and the infected H9C2 cells were harvested by trypsinisation. The infected H9C2 cells were then plated into 384-well plates containing the compounds to be tested, at 2500 cells per well in DMEM media with 2% FBS, 1% Penicillin/Streptomocin, 2 mM L-Glutamine, 1 mM Na Pyruvate and 25 mM HEPES. After 72 h incubation at 37° C. in presence of 5% CO2, the plates were fixed and stained with 4% formaldehyde and 2 μM Draq5 for 3 hours at room temperature. The plates were imaged on a Perkin Elmer Opera high-content imaging system using a 20× air objective. Images were analysed using the Acapella building blocks system (Perkin Elmer). The image analysis algorithm first identified the H9C2 nuclei followed by demarcation of the cytoplasm and identification of intracellular amastigotes. This algorithm reported mean number of parasites per H9C2 cell, the percentage of infected H9C2 cells and the total number of H9C2 cells.

For the compound `O=C(Nc1ccc(F)c(-c2cn3nc(N4CCOCC4)cnc3n2)c1)N1CCCC1` [Example 1, N-(4-fluoro-3-(2-morpholinoimidazo[1,2-b][1,2,4]triazin-6-yl)phenyl)pyrrolidine-1-carboxamide], the EC50 at 72 h in data set [1] and in data set [2] was > 50.1 µM each time. In addition, the EC50 in the data set on Leishmania donovani is 0.631 µM.
